These results are taken from ChEMBL document CHEMBL3580614, “Hypermongones A-J, Rare Methylated Polycyclic Polyprenylated Acylphloroglucinols from the Flowers of Hypericum monogynum” (J Nat Prod, 2015).

Bounds are passed on as bounds.

Data set [1] deals with RAW264.7. Briefly: Cytotoxicity against mouse RAW264.7 cells assessed as cell viability up to 100 uM. The format is cell-based.
Data set [2] relates to RAW264.7. Briefly: Antiinflammatory activity in mouse RAW264.7 cells assessed as inhibition of LPS-induced NO production incubated for 2 hrs prior to LPS-challenge measured after 24 hrs by Greiss assay. It is filed as functional, cell-based.

For the molecule `CC[C@H](C)C(=O)[C@]12C(=O)[C@](C)(C[C@H](CC=C(C)C)[C@@]1(C)CCC=C(C)C)C(=O)C1=C2O[C@@H](C(C)(C)O)C1`, in data set [1], the Activity entry is on record as “Non-toxic”. Moreover, the IC50 in data set [2] was determined as 14.5 µM.

On to `CC[C@H](C)C(=O)[C@]12C(=O)[C@](C)(C[C@H](CC=C(C)C)[C@@]1(C)CCC=C(C)C)C(=O)C1=C2O[C@H](C(C)(C)O)C1`, for which, in data set [1], the Activity result is “Non-toxic”. Besides, the IC50 in data set [2] is 23.7 µM.

On to `CC(C)=CCC[C@]1(C)[C@@H](CC=C(C)C)C[C@]2(C)C(=O)C3=C(O[C@@H](C(C)(C)O)C3)[C@@]1(C(=O)C(C)C)C2=O`, for which the Activity result in data set [1] is on record as “Non-toxic”. In data set [2], the IC50 was 27.3 µM.

As to `CC(C)=CCC[C@]1(C)[C@@H](CC=C(C)C)C[C@]2(C)C(=O)C3=C(O[C@H](C(C)(C)O)C3)[C@@]1(C(=O)C(C)C)C2=O`, the Activity result in data set [1] is on record as “Non-toxic”. Moreover, the IC50 in data set [2] is over 50 µM.

On to `CC[C@H](C)C(=O)[C@@]12C(=O)C3=C(O[C@H](C(C)(C)O)C3)[C@@](C)(C[C@H](CC=C(C)C)[C@@]1(C)CCC=C(C)C)C2=O`, for which the Activity entry in data set [1] is “Non-toxic”. The IC50 in data set [2] stood at 18.7 µM.

Consider `CC[C@H](C)C(=O)[C@@]12C(=O)C3=C(O[C@@H](C(C)(C)O)C3)[C@@](C)(C[C@H](CC=C(C)C)[C@@]1(C)CCC=C(C)C)C2=O`, for which the Activity entry in data set [1] is “Non-toxic”. Further, the IC50 in data set [2] came to 15.2 µM.

`CC(C)=CCC[C@]1(C)[C@@H](CC=C(C)C)C[C@@]2(C)C(=O)[C@]1(C(=O)C(C)C)C(=O)C1=C2O[C@H](C(C)(C)O)C1`: the Activity result in data set [1] was “Non-toxic”. In data set [2], the IC50 amounted to 9.5 µM.

Take `CC(C)=CCC[C@]1(C)[C@@H](CC=C(C)C)C[C@@]2(C)C(=O)[C@]1(C(=O)C(C)C)C(=O)C1=C2O[C@@H](C(C)(C)O)C1`: the Activity result in data set [1] is listed as “Non-toxic”. In data set [2], the IC50 stood at 14.9 µM.

Consider `CNC(=N)NCCC[C@H](N)C(=O)O` [TILARGININE], for which the Activity result in data set [1] is “Non-toxic”. The IC50 in data set [2] was 39.2 µM.
